Assay results as given in US20240393292A1, “ALLERGY ANTIGEN AND EPITOPE THEREOF” (HOYU CO., LTD., priority 2019, published 2024).

Tested on: IgE antibodies from patients
Experiment: Wheat epitope mapping (2): overlapping 10-amino-acid peptide fragments shifted by one amino acid;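 on Rank of partial sequence as epitope binding to IgE antibody: key = sequence deemed particularly important within the common 15-residue sequence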;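 on epitope sequence binding to IgE antibody, rank (Key/Preferably/More preferably): key of grades: preferably = shorter partial sequence still acting as epitope; more preferably = sequence improving IgE binding; key = particularly important sequence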
Type: binding, human
Procedure, shortened: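 Residual binding was banded as <30% none, 30–<50% poor, 50–<70% somewhat poor and ≥70% retained, relative to the parent overlapping sequence set to 100%. Values were chemiluminescent IgE signals from patient sera after subtracting secondary-antibody-only controls. The peptides were spot-synthesised 10-mers shifted by one amino acid.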

[1] = serum of patient P32 (WDEIA), sequence without X
[2] = serum of patient P34 (WDEIA), partial sequence

2388 (RCAYVTEIV; REGION 1..9: note = epitope) [compound 2388]
Epitope sequence binding to IgE antibody, rank of the sequence (Key/Preferably/More preferably) [1]: Key

1634 (YNPDKVPF; REGION 1..8: note = epitope) [compound 1634]
Rank of partial sequence as epitope binding to IgE antibody [1]: Preferably

1631 (DKVPFVPISG; REGION 1..10: note = epitope) [compound 1631]
Rank of partial sequence as epitope binding to IgE antibody (serum of patient P28 (WDEIA), sequence without X): Key

2604 (YQLVQ; REGION 1..5: note = epitope) [compound 2604]
Epitope sequence binding to IgE antibody, rank of the sequence (serum of patient P54 (child, general immediate type allergy to wheat), partial sequence): Preferably

1893 (YTVRTLQRT; REGION 1..9: note = epitope) [compound 1893]
epitope sequence binding to IgE antibody, rank (Key/Preferably/More preferably) (serum of patient G9 (adult, general immediate type allergy to wheat)): Preferably

2663 (FEKEAA; REGION 1..6: note = epitope) [compound 2663]
Epitope sequence binding to IgE antibody, rank of the sequence (serum of patient P50 (child, general immediate type allergy to wheat), partial sequence): Preferably

1671 (YNPDKVPF; REGION 1..8: note = epitope) [compound 1671]
Rank of partial sequence as epitope binding to IgE antibody (serum of patient G4 (adult, general immediate type allergy to wheat), sequence without X): Key

1948 (QVPLVQQQ; REGION 1..8: note = epitope) [compound 1948]
epitope sequence binding to IgE antibody, rank (Key/Preferably/More preferably) (serum of patient P24 (WDEIA)): Preferably

1633 (YNPD; REGION 1..4: note = epitope) [compound 1633]
Rank of partial sequence as epitope binding to IgE antibody (serum of patient P31 (WDEIA), sequence without X): Key

1468 (YLQPQQP; REGION 1..7: note = epitope) [compound 1468]
Rank of partial sequence as epitope binding to IgE antibody (serum of patient P26 (WDEIA), sequence without X): Key

2530 (FQPSQLNP; REGION 1..8: note = epitope) [compound 2530]
Epitope sequence binding to IgE antibody, rank of the sequence (serum of patient G2 (adult, general immediate type allergy to wheat), partial sequence): Preferably

1229 (PIQQQP; REGION 1..6: note = epitope) [compound 1229]
Epitope sequence binding to IgE antibody, rank of the sequence (serum of patient P13 (WDEIA), sequence without X): Preferably

1655 (FVPISG; REGION 1..6: note = epitope) [compound 1655]
Rank of partial sequence as epitope binding to IgE antibody (serum of patient P51 (child, general immediate type allergy to wheat), sequence without X): Key

2588 (QQLC; REGION 1..4: note = epitope) [compound 2588]
Epitope sequence binding to IgE antibody, rank of the sequence (serum of patient P32 (WDEIA), partial sequence): Key

2693 (YKGPTL; REGION 1..6: note = epitope) [compound 2693]
Epitope sequence binding to IgE antibody, rank of the sequence [2]: Key

1863 (VIAEYTVRTL; REGION 1..10: note = epitope) [compound 1863]
epitope sequence binding to IgE antibody, rank (Key/Preferably/More preferably) (serum of patient P25 (WDEIA)): Key

2746 (KIGGI; REGION 1..5: note = epitope) [compound 2746]
Epitope sequence binding to IgE antibody, rank of the sequence [2]: Key

2671 (AEMNKRSFK; REGION 1..9: note = epitope) [compound 2671]
Epitope sequence binding to IgE antibody, rank of the sequence (serum of patient G5 (adult, general immediate type allergy to wheat), partial sequence): Key

2745 (KIGGIG; REGION 1..6: note = epitope) [compound 2745]
Epitope sequence binding to IgE antibody, rank of the sequence [2]: Preferably

2542 (SSQVSF; REGION 1..6: note = epitope) [compound 2542]
Epitope sequence binding to IgE antibody, rank of the sequence (serum of patient G7 (adult, general immediate type allergy to wheat), partial sequence): Key

1621 (YNPD; REGION 1..4: note = epitope) [compound 1621]
Rank of partial sequence as epitope binding to IgE antibody (serum of patient P24 (WDEIA), sequence without X): Key

1732 (KEAA; REGION 1..4: note = epitope) [compound 1732]
epitope sequence binding to IgE antibody, rank (Key/Preferably/More preferably) (serum of patient P53 (child, general immediate type allergy to wheat)): Key

1938 (QFPGQQ; REGION 1..6: note = epitope) [compound 1938]
epitope sequence binding to IgE antibody, rank (Key/Preferably/More preferably) (serum of patient P19 (WDEIA)): Key

1195 (QFPPQQPYPQ; REGION 1..10: note = epitope) [compound 1195]
Epitope sequence binding to IgE antibody, rank of the sequence (serum of patient P22 (WDEIA), sequence without X): Key

1729 (ANFTSQVIIM; REGION 1..10: note = epitope) [compound 1729]
epitope sequence binding to IgE antibody, rank (Key/Preferably/More preferably) (serum of patient P52 (child, general immediate type allergy to wheat)): Preferably

2593 (QLVQ; REGION 1..4: note = epitope) [compound 2593]
Epitope sequence binding to IgE antibody, rank of the sequence (serum of patient P35 (WDEIA), partial sequence): Key
